Data reported in patent US20250092065A1, “2-(INDAZOL-5-YL)-6-(PIPERIDIN-4-YL)-1,7-NAPHTHYRIDINE DERIVATIVES AND RELATED COMPOUNDS AS MODULATORS FOR SPLICING NUCLEIC ACIDS AND FOR THE TREATMENT OF PROLIFERATIVE DISEASES” (REMIX THERAPEUTICS INC., priority 2022, published 2025).
Where a name gives a salt, the structure may show the parent alone. Read-outs that look alike come from different tables or passages of the source.

Tests used:
HTT mRNA = assay: RT-qPCR splicing assay, HTT mRNA canonical (CJ) and alternative (AJ) junction; format: cell-based, human; conditions: Homo sapiens; for AC50: HTT alternative junction mRNA increase, read-out: HTT AJ (increase in alternative junction mRNA, AC50)
Outline: (§1)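 Splice switching quantified in compound-treated A673/K562 cells after 24 h exposure (top dose 10 uM, 3-fold steps, ≤0.25% DMSO), using CJ and AJ qPCR assays run at least in duplicate. RQ derived by 2^(−ΔΔCt), then percentage response.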

SMN2 mRNA = assay: RT-qPCR splicing assay, SMN2 mRNA; format: cell-based, human; conditions: Homo sapiens, canonical junction qPCR panel, Table 4; read-out: SMN2 IC50 (decrease in CJ mRNA levels)
Outline: as §1

K562 cells = assay: Cell Titer Glo 2.0 cell viability (toxicity) assay, K562; conditions: 500 cells/well, 72 hours
MYB mRNA = assay: RT-qPCR splicing assay, MYB mRNA canonical (CJ) and alternative (AJ) junction; format: cell-based, human; conditions: Homo sapiens; for AC50: MYB alternative junction mRNA increase, read-out: MYB AJ (increase in alternative junction mRNA, AC50)
Outline: as §1

Target C = assay: RT-qPCR canonical junction panel assay, Target C mRNA; format: cell-based; conditions: Table 4, read-out: Target C IC50 (decrease in CJ mRNA levels)
Outline: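 A673 or K562 cells treated with compound; CJ mRNA quantified by junction-spanning RT-qPCR probe after cDNA synthesis, normalised to GAPDH, GUSB or PPIA and DMSO (2^−ΔΔCt), scaled to set ΔCt assay window; IC50 from 4-parameter fit of CJ decrease.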

[1] = RT-qPCR, HTT canonical junction mRNA decrease, read-out: HTT CJ (decrease in canonical junction mRNA, IC50)
[2] = canonical junction qPCR panel, Table 4, read-out: HTT IC50 (decrease in CJ mRNA levels)
[3] = RT-qPCR, MYB canonical junction mRNA decrease, read-out: MYB CJ (decrease in canonical junction mRNA, IC50)
[4] = canonical junction qPCR panel, Table 4, read-out: MYB IC50 (decrease in CJ mRNA levels)

| IC50 (HTT mRNA; [1]) [µM] | IC50 (HTT mRNA; [2]) [µM] | IC50 (SMN2 mRNA) [µM] | IC50 (MYB mRNA; [3]) [µM] | IC50 (MYB mRNA; [4]) [µM] | IC50 (Target C) [µM] | SMILES | AC50 (HTT mRNA; RT-qPCR) [µM] | Effect of Exemplary Compounds on Cell Viability, K562 (K562 cells) | AC50 (MYB mRNA; RT-qPCR) [µM] |
| --- | --- | --- | --- | --- | --- | --- | --- | --- | --- |
| 1 to 10 | 1 to 10 | < 0.1 | 0.1 to 1 | 0.1 to 1 | 1 to 10 | Cc1nc2c(F)cc(-c3ncc4cc(N5C[C@H](C)N[C@@H](C)C5)ccc4n3)cn2n1 [Compound 819, 6-[(3S,5S)-3,5-dimethylpiperazin-1-yl]-2-{8-fluoro-2-methyl-[1,2,4]triazolo[1,5-a]pyridin-6-yl}quinazoline hydrochloride] | 1 to 10 | B (B represents 100-1000 nM) | 0.1 to 1 |
| > 10 | > 10 | 0.1 to 1 | 1 to 10 | 1 to 10 | > 10 | CCc1cn2cc(-c3ncc4cc(N5C[C@H](C)N[C@@H](C)C5)ccc4n3)cc(F)c2n1 [Compound 821] | > 10 | C (C represents 1000-9999 nM) | > 10 |
| 1 to 10 | 1 to 10 | < 0.1 | 0.1 to 1 | 0.1 to 1 | 1 to 10 | Cc1nc2c(F)cc(-c3ncc4cc(N5C[C@@H](C)N[C@@H](C)C5)ccc4n3)cn2n1 [Compound 825, 6-[(3R,5S)-3,5-dimethylpiperazin-1-yl]-2-{8-fluoro-2-methyl-[1,2,4]triazolo[1,5-a]pyridin-6-yl}quinazoline] | 1 to 10 | C (C represents 1000-9999 nM) | 0.1 to 1 |
| 1 to 10 | 1 to 10 | < 0.1 | 0.1 to 1 | 0.1 to 1 | 1 to 10 | Cc1cn2cc(-c3ncc4cc(N5C[C@@H](C)N(C)[C@@H](C)C5)ccc4n3)cc(F)c2n1 [Compound 826, 2-{8-fluoro-2-methylimidazo[1,2-a]pyridin-6-yl}-6-[(3R,5S)-3,4,5-trimethylpiperazin-1-yl]quinazoline] | 1 to 10 | B (B represents 100-1000 nM) | < 0.1 |

Further lines, the molecule ahead of its results:

| SMILES | IC50 (HTT mRNA; [1]) [µM] | IC50 (HTT mRNA; [2]) [µM] | IC50 (SMN2 mRNA) [µM] | IC50 (MYB mRNA; [3]) [µM] | IC50 (MYB mRNA; [4]) [µM] | IC50 (Target C) [µM] | AC50 (HTT mRNA; RT-qPCR) [µM] | Effect of Exemplary Compounds on Cell Viability, K562 (K562 cells) | AC50 (MYB mRNA; RT-qPCR) [µM] |
| --- | --- | --- | --- | --- | --- | --- | --- | --- | --- |
| COc1nc(-c2ncc3cc(N4C[C@H](C)N[C@@H](C)C4)ccc3n2)cn2cc(C)nc12 [Compound 823] | 1 to 10 | 1 to 10 | < 0.1 | 0.1 to 1 | 0.1 to 1 | > 10 | 1 to 10 | B (B represents 100-1000 nM) | 0.1 to 1 |
| Cc1cn2cc(-c3ncc4cc(N5C[C@H](C)N(C)[C@@H](C)C5)ccc4n3)cc(F)c2n1 [Compound 824] | 0.1 to 1 | 0.1 to 1 | < 0.1 | 0.1 to 1 | 0.1 to 1 | 1 to 10 | 1 to 10 | B (B represents 100-1000 nM) | 0.1 to 1 |
